The assay has as its system L1210 leukemia ip in BDF1 mice, survival T/C. The assay can be described thus: NCI In Vivo Anticancer Drug Screen. Data for tumor model L1210 Leukemia (intraperitoneal) in B6D2F1 (BDF1) mice. The following applies: endpoint: mean survival time, higher = longer survival. Summed up: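 Read-out is survival time, reported as the treated-group measurement over the vehicle-control measurement.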

[1] abbreviates: dose: 100.0 mg/kg/injection, schedule: Q01DX009 (ip), vehicle: saline.
Setting [2] is: dose: 100.0 mg/kg/injection, schedule: Q04DX003 (ip), vehicle: saline.
[3] abbreviates: dose: 200.0 mg/kg/injection, schedule: Q01DX009 (ip), vehicle: saline.
Setting [4] is: dose: 200.0 mg/kg/injection, schedule: Q04DX003 (ip), vehicle: saline.
The mark [5] stands for this setting: dose: 400.0 mg/kg/injection, schedule: Q01DX009 (ip), vehicle: saline.
Where [6] appears, read: dose: 400.0 mg/kg/injection, schedule: Q04DX003 (ip), vehicle: saline.
The mark [7] stands for this setting: dose: 100.0 mg/kg/injection, schedule: Q04DX003 (ip), vehicle: Klucel (hydroxypropylcellulose) (HPC).
Where [8] appears, read: dose: 100.0 mg/kg/injection, schedule: Q01DX001 (ip), vehicle: saline.
The mark [9] stands for this setting: dose: 200.0 mg/kg/injection, schedule: Q01DX001 (ip), vehicle: saline.
Setting [10] is: dose: 400.0 mg/kg/injection, schedule: Q01DX001 (ip), vehicle: saline.
[11] abbreviates: dose: 100.0 mg/kg/injection, schedule: Q01DX009 (ip), vehicle: saline with Tween-80.
The mark [12] stands for this setting: dose: 50.0 mg/kg/injection, schedule: Q01DX001 (ip), vehicle: saline.

Where “and” joins values, the source holds several entries; their conditions need not be identical. Equal entries are not always repeated. Toxic doses and inconclusive results are not listed.

T/C data for 22 compounds are collected here from PubChem BioAssay AID248 (DTP/NCI, 2004).

In the case of `CC1(C)CC(OP(=O)(N2CC2)N2CC2)CC(C)(C)N1O`, the T/C is 102 % of control (dose: 50.0 mg/kg/injection, schedule: Q01DX001 (ip), vehicle: water); 98 % of control (dose: 100.0 mg/kg/injection, schedule: Q01DX001 (ip), vehicle: water); 102 % of control (dose: 200.0 mg/kg/injection, schedule: Q01DX001 (ip), vehicle: water).
Take `Nc1nc(N)c2cc(CNc3ccc(C(=O)NC(C(=O)O)C(=O)O)cc3)ccc2n1`: the T/C was 122 % of control (dose: 0.06 mg/kg/injection, schedule: Q01DX001 (ip), vehicle: saline); 123 % of control (dose: 0.06 mg/kg/injection, schedule: Q01DX015 (ip), vehicle: carboxymethylcellulose (CMC)); 105 % of control (dose: 0.25 mg/kg/injection, schedule: Q01DX015 (ip), vehicle: carboxymethylcellulose (CMC)); 157 % of control and 173 % of control (dose: 5.0 mg/kg/injection, schedule: Q01DX001 (ip), vehicle: carboxymethylcellulose (CMC)); 91 % of control (dose: 11.25 mg/kg/injection, schedule: Q01DX001 (ip), vehicle: carboxymethylcellulose (CMC)); 89 % of control (dose: 20.0 mg/kg/injection, schedule: Q01DX001 (ip), vehicle: carboxymethylcellulose (CMC)).
Consider `CNCCCNCC1C(c2ccccc2)C1c1ccccc1` (configuration not stated), for which the T/C runs as follows: (dose: 25.0 mg/kg/injection, schedule: Q04DX002 (ip), vehicle: saline) 100 % of control and 90 % of control; (dose: 50.0 mg/kg/injection, schedule: Q04DX002 (ip), vehicle: saline) 103 % of control; (dose: 100.0 mg/kg/injection, schedule: Q04DX002 (ip), vehicle: saline) 86 % of control and 97 % of control.
Turning to `Clc1ccc(CNc2ncnc3[nH]ncc23)cc1`, the T/C is 100 % of control (dose: 100.0 mg/kg/injection, schedule: Q01DX001 (ip), vehicle: other); 104 % of control (dose: 100.0 mg/kg/injection, schedule: Q04DX003 (ip), vehicle: other); 106 % of control (dose: 200.0 mg/kg/injection, schedule: Q01DX001 (ip), vehicle: other); 113 % of control (dose: 200.0 mg/kg/injection, schedule: Q04DX003 (ip), vehicle: other); 108 % of control (dose: 400.0 mg/kg/injection, schedule: Q01DX001 (ip), vehicle: other); 103 % of control (dose: 400.0 mg/kg/injection, schedule: Q04DX003 (ip), vehicle: other).
As for `CCOC(=O)N1C=Cn2c(cnc2C)C1OCC` (configuration not stated), the T/C runs as follows: (dose: 50.0 mg/kg/injection, schedule: Q01DX009 (ip), vehicle: saline) 109 % of control; under setting [1], 100 % of control and 92 % of control; under setting [2], 91 % of control; under setting [3], 110 % of control and 90 % of control; under setting [4], 94 % of control; under setting [5], 92 % of control.
In the case of `Clc1nc2ccccc2n2nnnc12`, the T/C (dose: 15.0 mg/kg/injection, schedule: Q04DX003 (ip), vehicle: saline) was 101 % of control; the T/C (dose: 30.0 mg/kg/injection, schedule: Q04DX003 (ip), vehicle: saline) is 98 % of control; the T/C (dose: 60.0 mg/kg/injection, schedule: Q04DX003 (ip), vehicle: saline) was 86 % of control.
`Cc1cccc(Cl)[n+]1[O-]`: the T/C is 97 % of control under setting [2], 97 % of control under setting [4] and 86 % of control under setting [6].
As for `NC(=O)C(=O)NCCCN1CC1`, the T/C was 102 % of control (dose: 12.5 mg/kg/injection, schedule: Q04DX003 (ip), vehicle: Klucel (hydroxypropylcellulose) (HPC)); 98 % of control (dose: 25.0 mg/kg/injection, schedule: Q04DX003 (ip), vehicle: Klucel (hydroxypropylcellulose) (HPC)); 106 % of control (dose: 50.0 mg/kg/injection, schedule: Q04DX003 (ip), vehicle: Klucel (hydroxypropylcellulose) (HPC)); 118 % of control under setting [7].
With `CNc1nc2ccccc2n1C1OC(CO)C(O)C1O` (configuration not stated), the T/C runs as follows: under setting [8], 95 % of control; under setting [9], 98 % of control; under setting [10], 98 % of control.
For the compound `CCCCOC(=O)C=O`, the T/C runs as follows: (dose: 50.0 mg/kg/injection, schedule: Q01DX009 (ip), vehicle: saline with Tween-80) 106 % of control; under setting [11], 97 % of control.
With `CSc1ccc(NC(=O)Nc2ccccc2C(N)=O)cc1`, the T/C was 108 % of control under setting [1]; 92 % of control under setting [2]; 114 % of control under setting [3]; 98 % of control under setting [4]; 95 % of control under setting [6].
Take `CCC(=O)OCC1CCC(COC(=O)CC)CC1` (configuration not stated): the T/C runs as follows: (dose: 222.0 mg/kg/injection, schedule: Q01DX Z (ip), vehicle: methylcellulose (MC)) 100 % of control; (dose: 333.0 mg/kg/injection, schedule: Q01DX Z (ip), vehicle: methylcellulose (MC)) 96 % of control; (dose: 500.0 mg/kg/injection, schedule: Q01DX Z (ip), vehicle: methylcellulose (MC)) 97 % of control.
Turning to `NCC1OC(OC2C(CO)OC(OC3C(O)C(N)CC(N)C3OC3OC(CO)C(O)CC3N)C2O)C(N)C(O)C1OC1OC(CO)C(O)C(O)C1O` (configuration not stated), the T/C (dose: 100.0 mg/kg/injection, schedule: Q01DX005 (ip), vehicle: saline) is 96 % of control; the T/C under setting [1] was 100 % of control; the T/C (dose: 200.0 mg/kg/injection, schedule: Q01DX005 (ip), vehicle: saline) was 101 % of control; the T/C under setting [3] is 110 % of control; the T/C (dose: 400.0 mg/kg/injection, schedule: Q01DX005 (ip), vehicle: saline) is 101 % of control; the T/C under setting [5] was 100 % of control.
For `NNC(=O)CNc1ccc(F)cc1`, the T/C runs as follows: (dose: 100.0 mg/kg/injection, schedule: Q04DX002 (ip), vehicle: Klucel (hydroxypropylcellulose) (HPC)) 105 % of control; (dose: 200.0 mg/kg/injection, schedule: Q04DX002 (ip), vehicle: Klucel (hydroxypropylcellulose) (HPC)) 114 % of control.
`Cc1ccc(CC(=O)c2c[nH]c3ccccc23)c(Cl)c1C`: the T/C was 96 % of control under setting [12], 98 % of control under setting [8], 93 % of control under setting [9] and 98 % of control under setting [10].
On to `COc1ccc(C(C)=O)c(O)c1OC`, for which the T/C was 101 % of control under setting [8], 101 % of control under setting [9] and 98 % of control under setting [10].
On to `Cc1ccc(CO)cc1C`, for which the T/C was 95 % of control (dose: 50.0 mg/kg/injection, schedule: Q04DX003 (ip), vehicle: saline with Tween-80); 104 % of control (dose: 100.0 mg/kg/injection, schedule: Q04DX003 (ip), vehicle: saline with Tween-80); 93 % of control (dose: 200.0 mg/kg/injection, schedule: Q04DX003 (ip), vehicle: saline with Tween-80).
In the case of `S=C([S-])N1CCN(c2ccccc2)CC1.S=C([S-])N1CCN(c2ccccc2)CC1.[Zn]`, the T/C is 89 % of control under setting [2]; 95 % of control and 88 % of control under setting [4]; 90 % of control under setting [6].
Regarding `Cc1ccc([N+](=O)[O-])cc1NC(=O)Nc1ccc(S(N)(=O)=O)cc1`, the T/C is 97 % of control (dose: 100.0 mg/kg/injection, schedule: Q01DX009 (ip), vehicle: Klucel (hydroxypropylcellulose) (HPC)); 96 % of control under setting [7]; 98 % of control (dose: 200.0 mg/kg/injection, schedule: Q01DX009 (ip), vehicle: Klucel (hydroxypropylcellulose) (HPC)); 92 % of control (dose: 200.0 mg/kg/injection, schedule: Q04DX003 (ip), vehicle: Klucel (hydroxypropylcellulose) (HPC)); 103 % of control (dose: 400.0 mg/kg/injection, schedule: Q01DX009 (ip), vehicle: Klucel (hydroxypropylcellulose) (HPC)); 91 % of control (dose: 400.0 mg/kg/injection, schedule: Q04DX003 (ip), vehicle: Klucel (hydroxypropylcellulose) (HPC)).
For `OCC1(O)CCC1`, the T/C by setting is: under setting [1], 102 % of control; under setting [2], 94 % of control; under setting [3], 99 % of control; under setting [4], 103 % of control; under setting [5], 107 % of control; under setting [6], 96 % of control.
Turning to `O=S(=O)(c1ccccc1)c1ccc(O)cc1`, the T/C under setting [12] was 95 % of control, the T/C under setting [8] was 89 % of control, the T/C under setting [9] was 108 % of control and the T/C under setting [10] was 101 % of control.
As for `c1ccc(Sc2cccc3ccccc23)cc1`, the T/C under setting [11] was 109 % of control; the T/C (dose: 200.0 mg/kg/injection, schedule: Q01DX009 (ip), vehicle: saline with Tween-80) was 103 % of control; the T/C (dose: 400.0 mg/kg/injection, schedule: Q01DX009 (ip), vehicle: saline with Tween-80) was 103 % of control.
